Data published in article PMC12914960, “Repurposing a detrimental antibody epitope as targeted therapeutics for sepsis and rheumatoid arthritis” (Military Medical Research, 2026).
Values joined by “and” are separate entries in the source; they are usually repeats but may differ in a detail not shown here. Equal values may be shown once. Where a SMILES comes first, the peptide text is derived from it.

Columns and labels:
[1] = system: pCTS-L secretion from human PBMCs; experiment: HMGB1-induced pCTS-L secretion by PBMCs, Western blotting; type: cell-based; settings: 16 h; for pCTS-L release: densitometry
Description: Human blood was purchased from the New York Blood Center (Long Island City, NY, USA), and PBMCs were isolated via density gradient centrifugation through Ficoll (Ficoll-Paque PLUS) as previously described. PBMCs were cultured in RPMI-1640 supplemented with 10% human serum, 2 mmol/L L-glutamine, 100 U/ml penicillin, and 100 µg/ml streptomycin (all from Invitrogen, Carlsbad, CA, USA). For experiments, PBMCs were stimulated with recombinant HMGB1 (0.5 or 2.0 µg/ml) for 16 h, either alone or in combination with P2-1 at 5.0 or 10.0 µg/ml. Cell-free supernatants were collected for analysis of cytokine/chemokine levels via cytokine antibody arrays, or pCTS-L levels via Western blotting analysis as previously described.
Cell-conditioned medium from human PBMC cultures was collected and concentrated via Amicon Ultra Centrifugal Filters with a 10 kD molecular weight cutoff (Cat. #UFC801096, MilliporeSigma, Burlington, MA, USA). Equal volumes of conditioned medium, representing equivalent numbers of cells, were resolved on sodium dodecyl sulfate-polyacrylamide gels and transferred to polyvinylidene difluoride membranes. After being blocked with 5% nonfat milk in Tris-buffered saline with 0.1% Tween 20, the membranes were probed with a homemade primary monoclonal antibody against pCTS-L (e.g., mAb2, 1:1000) overnight as previously described. After washing, the membranes were incubated with a horseradish peroxidase-conjugated secondary antibody. The protein bands were visualized using enhanced chemiluminescence substrate (Pierce) and detected via a chemiluminescence imaging system (e.g., Bio-Rad ChemiDoc MP). The relative levels of specific proteins were determined using the UN-SCAN-IT gel analysis software version 7.1 (Silk Scientific Inc., Orem, UT, USA) and expressed in arbitrary units (AU). The experiments were performed in quadruplicate (n = 4 biological replicates).
Fig. S9 Full Western blotting analysis of the effect of P2- 1 on HMGB1- induced pCTS-L release in human PBMCs. Human PBMCs were stimulated with HMGB1 (0.5 µ g/ml) in th e abs ence or p resen ce of P2-1 (5.0 or 10.0 µg/ml) for 16 h, and the levels of pCTS-L in the cell-conditioned medium were determined by Western blotting, with sample loading normalized by volume of culture medium conditioned by an equivalent number of cells. Representative Western blotting images showing the dose-dependent […]
human PBMCs. HMGB1 high mobility group box 1, pCTS -L procathepisn L , PBMCs PBMCs peripheral […]
(1 picture or pasted object on this page, not shown here)

[2] = system: Differentiated human macrophages; experiment: HMGB1-induced macrophage death, trypan blue uptake; type: cell-based; settings: 16 h; for Trypan blue uptake: individual replicates
Description: Human macrophage differentiation and treatment
Human PBMCs were differentiated into macrophages by culturing in human macrophage colony-stimulating factor (M-CSF, 20 ng/ml) for 5 – 6 d. Differentiated macrophages were maintained in Dulbecco’s modified Eagle’s medium supplemented with 1% penicillin/streptomycin and 10% human serum. Upon reaching 70 – 80% conflu ence, adh erent cells were wash ed and switched to Opti-MEM I before stimulation with recombinant HMGB1 (0.5 µg/ml) with or without P2- 1 (5.0 or 10 µg/ml) for 16 […]
Cell viability was assessed via the tryp an blue excl usion and lactat e dehyd ro genase (LDH) release method as previously described . For trypan blue exclusion, random phase-contr ast images were captur ed , and the percentage of nonviable, trypan blue-stained cells was calculated. LDH release in the culture medium was quantified with an LDH Ass ay Kit (Cat. #L7572, Pointe Scientific Inc., Canton, MI, USA) according to the manufacturer ’s instructions. Optical density was measured at 340 nm, and LDH content was expressed as a per centag e of maximal release in the presence of 2% Triton X-100. The experiments were performed 5 – 7 times ( n= 5 –7 biological replicates). […]

## CCCC[C@H](NC(=O)[C@H](Cc1c[nH]cn1)NC(=O)[C@@H](NC(=O)[C@H](CCCCN)NC(=O)[C@@H](N)[C@@H](C)O)C(C)C)C(=O)N[C@@H](CCCCN)C(=O)N[C@@H](CO)C(=O)N[C@@H](Cc1ccccc1)C(=O)N[C@@H](CC(C)C)C(=O)N[C@@H](C)C(=O)N[C@@H](Cc1ccccc1)C(=O)N[C@@H](CCC(N)=O)C(=O)N[C@H](C(=O)N[C@@H](CCCCN)C(=O)N[C@H](C(=O)O)[C@@H](C)O)[C@@H](C)O [P2-1] (HELM PEPTIDE1{T.K.V.H.[Nle].K.S.F.L.A.F.Q.T.K.T}$$$$V2.0; N-terminus and C-terminus assumed)
[1]; HMGB1 (0.5) + P2-1 5.0 μg/ml, individual replicates
  pCTS-L release: 1.2 and 4 and 3.2 and 2.1
[1]; HMGB1 (0.5) + P2-1 10.0 μg/ml, individual replicates
  pCTS-L release: 0.4 and 0.7 and 1.9 and 1.1
[1]; HMGB1 (2.0) + P2-1 5.0 μg/ml, single value
  pCTS-L release: 4.8
[1]; HMGB1 (2.0) + P2-1 10.0 μg/ml, single value
  pCTS-L release: 1.6
[1]; P2-1 5.0 or 10.0 µg/ml
  HMGB1-induced pCTS-L secretion, in words: striking and dose-dependent suppression of HMGB1-induced pCTS-L secretion
[2]; HMGB1 0.5 µg/ml + P2-1 5.0 μg/ml
  Trypan blue uptake: 4.1% and 2.7% and 4.8% and 2.3% and 0.9% and 2.4%
[2]; HMGB1 0.5 µg/ml + P2-1 10.0 μg/ml
  Trypan blue uptake: 2.9% and 0.8% and 3.8% and 1.1% and 4.2% and 3.6% and 2.4%
[2]; trypan blue uptake and LDH release, HMGB1 0.5 µg/ml, P2-1 5.0 or 10 µg/ml
  HMGB1-induced macrophage death, in words: significantly inhibited HMGB1-induced macrophage death
